Data published in PubChem BioAssay (NCI).
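Where inhibition never reached the appropriate level, the endpoint shown equals the highest concentration tested. Otherwise, values were interpolated linearly from a five-concentration, 48-hour dose response in 96-well plates. The concentration for 50% growth inhibition is given as GI50. At the TGI there is no net growth.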

Experiments:
Assay in all cases: inhibition of tumour cell growth, NCI panel, 48 h
786-0 renal = test system: 786-0 renal
A498 renal = test system: A498 renal
A549 NSCLC = test system: A549 NSCLC
ACHN renal = test system: ACHN renal
BT-549 breast = test system: BT-549 breast
CAKI-1 renal = test system: CAKI-1 renal
CCRF-CEM leukemia = test system: CCRF-CEM leukemia
COLO 205 colon = test system: COLO 205 colon
DU-145 prostate = test system: DU-145 prostate
EKVX NSCLC = test system: EKVX NSCLC
HCC-2998 colon = test system: HCC-2998 colon
HCT-116 colon = test system: HCT-116 colon
HCT-15 colon = test system: HCT-15 colon
HL-60(TB) leukemia = test system: HL-60(TB) leukemia
HOP-62 NSCLC = test system: HOP-62 NSCLC
HOP-92 NSCLC = test system: HOP-92 NSCLC
HS 578T breast = test system: HS 578T breast
HT29 colon = test system: HT29 colon
IGROV1 ovarian = test system: IGROV1 ovarian
K-562 leukemia = test system: K-562 leukemia
KM12 colon = test system: KM12 colon
LOX IMVI melanoma = test system: LOX IMVI melanoma
M14 melanoma = test system: M14 melanoma
MALME-3M melanoma = test system: MALME-3M melanoma
MCF7 breast = test system: MCF7 breast
MDA-MB-231 breast = test system: MDA-MB-231 breast
MDA-MB-435 = test system: MDA-MB-435
MDA-MB-468 breast = test system: MDA-MB-468 breast
MOLT-4 leukemia = test system: MOLT-4 leukemia

Q: With `C=C1CCC2C3(C)COC(c4ccco4)OC3CCC2(C)C1CC(Sc1ccccc1)C1=CCOC1=O` (stereo not drawn) as the compound, how does the GI50 (786-0 renal) read?
A: 14.3 µM

Q: What about the TGI (786-0 renal) of the same compound?
A: 34.1 µM

Q: What about the GI50 (A498 renal) of the same compound?
A: > 100 µM

Q: And the TGI (A498 renal)?
A: > 100 µM

Q: What about the GI50 (A549 NSCLC) of the same compound?
A: 18.7 µM

Q: And the TGI (A549 NSCLC)?
A: > 100 µM

Q: What about the GI50 (ACHN renal) of the same compound?
A: 14.1 µM

Q: And the TGI (ACHN renal)?
A: > 100 µM

Q: And the GI50 (BT-549 breast)?
A: 3.97 µM

Q: What about the TGI (BT-549 breast) of the same compound?
A: 16.9 µM

Q: And the GI50 (CAKI-1 renal)?
A: 18.4 µM

Q: What about the TGI (CAKI-1 renal) of the same compound?
A: > 100 µM

Q: And the GI50 (CCRF-CEM leukemia)?
A: 2.12 µM

Q: What about the TGI (CCRF-CEM leukemia) of the same compound?
A: > 100 µM

Q: What about the GI50 (COLO 205 colon) of the same compound?
A: 24.4 µM

Q: And the TGI (COLO 205 colon)?
A: > 100 µM

Q: And the GI50 (DU-145 prostate)?
A: 9.01 µM

Q: And the TGI (DU-145 prostate)?
A: 73.6 µM

Q: What about the GI50 (EKVX NSCLC) of the same compound?
A: 11 µM

Q: What about the TGI (EKVX NSCLC) of the same compound?
A: > 100 µM

Q: And the GI50 (HCC-2998 colon)?
A: 21.1 µM

Q: And the TGI (HCC-2998 colon)?
A: > 100 µM

Q: And the GI50 (HCT-116 colon)?
A: 4.39 µM

Q: And the TGI (HCT-116 colon)?
A: 17.9 µM

Q: And the GI50 (HCT-15 colon)?
A: 6.66 µM

Q: What about the TGI (HCT-15 colon) of the same compound?
A: 52.9 µM

Q: And the GI50 (HL-60(TB) leukemia)?
A: 2.82 µM

Q: And the TGI (HL-60(TB) leukemia)?
A: 36.4 µM

Q: And the GI50 (HOP-62 NSCLC)?
A: 23.5 µM

Q: What about the TGI (HOP-62 NSCLC) of the same compound?
A: > 100 µM

Q: What about the GI50 (HOP-92 NSCLC) of the same compound?
A: 16.5 µM

Q: What about the TGI (HOP-92 NSCLC) of the same compound?
A: > 100 µM

Q: What about the GI50 (HS 578T breast) of the same compound?
A: 35.7 µM

Q: What about the TGI (HS 578T breast) of the same compound?
A: > 100 µM

Q: And the GI50 (HT29 colon)?
A: 4.26 µM

Q: What about the TGI (HT29 colon) of the same compound?
A: 26.1 µM

Q: What about the GI50 (IGROV1 ovarian) of the same compound?
A: 17.8 µM

Q: And the TGI (IGROV1 ovarian)?
A: > 100 µM

Q: What about the GI50 (K-562 leukemia) of the same compound?
A: 3.62 µM

Q: What about the TGI (K-562 leukemia) of the same compound?
A: > 100 µM

Q: And the GI50 (KM12 colon)?
A: 12.1 µM

Q: And the TGI (KM12 colon)?
A: > 100 µM

Q: What about the GI50 (LOX IMVI melanoma) of the same compound?
A: 1.81 µM

Q: What about the TGI (LOX IMVI melanoma) of the same compound?
A: 4 µM

Q: And the GI50 (M14 melanoma)?
A: 15.7 µM

Q: What about the TGI (M14 melanoma) of the same compound?
A: 69.2 µM

Q: What about the GI50 (MALME-3M melanoma) of the same compound?
A: 35.6 µM

Q: What about the TGI (MALME-3M melanoma) of the same compound?
A: > 100 µM

Q: And the GI50 (MCF7 breast)?
A: 3.75 µM

Q: And the TGI (MCF7 breast)?
A: 41 µM

Q: What about the GI50 (MDA-MB-231 breast) of the same compound?
A: 14.3 µM

Q: What about the TGI (MDA-MB-231 breast) of the same compound?
A: 53.2 µM

Q: What about the GI50 (MDA-MB-435) of the same compound?
A: 8.94 µM

Q: What about the TGI (MDA-MB-435) of the same compound?
A: > 100 µM

Q: And the GI50 (MDA-MB-468 breast)?
A: 3.8 µM

Q: And the TGI (MDA-MB-468 breast)?
A: 16.7 µM

Q: What about the GI50 (MOLT-4 leukemia) of the same compound?
A: 4.41 µM

Q: What about the TGI (MOLT-4 leukemia) of the same compound?
A: > 100 µM
